Laboratory results from ChEMBL document CHEMBL2413068, “Solid-phase synthesis of 5'-triphosphate 2'-5'-oligoadenylates analogs with 3'-O-biolabile groups and their evaluation as RNase L activators and antiviral drugs” (Bioorg Med Chem, 2013).
pEC50: −log10 of the molar value. Active and inactive are the calls of the source. The rule behind the calls is not given here.

How the values were obtained:
[1] = Cytotoxicity against human A549 cells after 72 hrs by Cell Titer-Glo assay; format: cell-based
Vero [2] = experiment: Cytotoxicity against african green monkey Vero cells assessed as cell viability up to 100 uM by Hucker's crystal violet staining; format: cell-based; details: chlorocebus sabaeus
[3] = molecular target: T1, 2-5A-dependent ribonuclease (Homo sapiens, UniProt Q05823); experiment: Activation of human recombinant RNase L endonuclease activity using 6-FAM-UUAUCAAAUUCUUAUUUGCCCCAUUUUUUUGGUUUA-BHQ-1 as substrate assessed as substrate cleavage measured for 50 mins by FRET assay
T1 sequence (Q05823 whole entry): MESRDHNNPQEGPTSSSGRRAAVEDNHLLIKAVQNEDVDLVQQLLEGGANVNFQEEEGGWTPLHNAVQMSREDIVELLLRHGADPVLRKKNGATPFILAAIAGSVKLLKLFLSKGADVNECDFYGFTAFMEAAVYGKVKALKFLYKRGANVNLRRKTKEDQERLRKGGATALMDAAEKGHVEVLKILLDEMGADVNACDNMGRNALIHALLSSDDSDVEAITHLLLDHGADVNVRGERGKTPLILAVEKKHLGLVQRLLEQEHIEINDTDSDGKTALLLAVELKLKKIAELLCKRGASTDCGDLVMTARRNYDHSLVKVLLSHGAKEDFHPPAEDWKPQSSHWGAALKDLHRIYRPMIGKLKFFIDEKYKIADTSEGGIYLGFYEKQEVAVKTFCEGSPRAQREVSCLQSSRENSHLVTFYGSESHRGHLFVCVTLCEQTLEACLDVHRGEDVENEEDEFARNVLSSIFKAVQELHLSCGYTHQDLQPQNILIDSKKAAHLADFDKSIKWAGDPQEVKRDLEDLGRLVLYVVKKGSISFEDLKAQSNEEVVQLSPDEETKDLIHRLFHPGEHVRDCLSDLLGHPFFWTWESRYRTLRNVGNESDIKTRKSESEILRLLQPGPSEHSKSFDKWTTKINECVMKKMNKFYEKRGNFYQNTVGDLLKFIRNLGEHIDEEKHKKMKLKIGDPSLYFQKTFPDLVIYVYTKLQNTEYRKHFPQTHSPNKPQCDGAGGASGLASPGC

Influenza A virus = experiment: Antiviral activity against Influenza A virus (A/WSN/1933(H1N1)) infected in human A549 cells assessed as reduction of viral RNA level my measuring luminescence after 72 hrs by RT-PCR analysis; format: functional, organism-based; details: A549, 72 h
Vero [4] = experiment: Cytotoxicity against Respiratory syncytial virus A2 infected african green monkey Vero cells at 33.3 uM by Hucker's crystal violet staining; format: cell-based; details: chlorocebus sabaeus
[5] = Selectivity index, ratio of CC50 for human A549 cells to EC50 for Influenza A virus (A/WSN/1933(H1N1)); format: toxicity, cell-based; details: read-out: Ratio CC50/EC50
[6] = system: Respiratory syncytial virus; experiment: Antiviral activity against Respiratory syncytial virus A2 infected in african green monkey Vero cells assessed as reduction of virus-induced cytopathic effect at >= 15 nM pretreated 2 hrs before viral infection measured daily using hucker's crystal violet staining; format: functional, organism-based

Structure (SMILES)	CC50 at 72 h [1] [nM]	Activity (Vero [2])	pEC50 [3]	pEC50 (Influenza A virus)	Activity (Vero [4])	selectivity ratio [5]	Activity [6]
CC(C)(C)C(=O)OCO[C@H]1[C@@H](O)[C@H](n2cnc3ncnc(N)c32)O[C@@H]1COP(=O)(O)O[C@@H]1[C@H](OCOC(=O)C(C)(C)C)[C@@H](COP(=O)(O)O[C@@H]2[C@H](OCOC(=O)C(C)(C)C)[C@@H](COP(=O)(O)OP(=O)(O)OP(=O)(O)O)O[C@H]2n2cnc3ncnc(N)c32)O[C@H]1n1cnc2ncnc(N)c21	47000	Non-toxic	7.72	4.84	Toxic	3	Active
Nc1ncnc2ncn([C@@H]3O[C@H](COP(=O)(O)O[C@@H]4[C@H](O)[C@@H](COP(=O)(O)O[C@@H]5[C@H](O)[C@@H](COP(=O)(O)O[C@@H]6[C@H](O)[C@@H](COP(=O)(O)OP(=O)(O)OP(=O)(O)O)O[C@H]6n6cnc7ncnc(N)c76)O[C@H]5n5cnc6ncnc(N)c65)O[C@H]4n4cnc5ncnc(N)c54)[C@@H](O)[C@H]3O)c12	–	–	8.21	–	–	–	–
CC(C)(C)C(=O)OCO[C@H]1[C@@H](O)[C@H](n2cnc3ncnc(N)c32)O[C@@H]1COP(=O)(O)O[C@@H]1[C@H](OCOC(=O)C(C)(C)C)[C@@H](COP(=O)(O)O[C@@H]2[C@H](OCOC(=O)C(C)(C)C)[C@@H](COP(=O)(O)O[C@@H]3[C@H](OCOC(=O)C(C)(C)C)[C@@H](COP(=O)(O)OP(=O)(O)OP(=O)(O)O)O[C@H]3n3cnc4ncnc(N)c43)O[C@H]2n2cnc3ncnc(N)c32)O[C@H]1n1cnc2ncnc(N)c21	–	–	6.62	–	–	–	–
